Patent publication US10653779B2, “Formulations with reduced oxidation” (Genentech, Inc., priority 2013, dated 2020)

Test: Photosensitivity screening: H2O2 formation by antioxidant candidates upon light exposure (Amplex Ultra Red Assay)
Assay type: physicochemical
Protocol: As a screening tool, antioxidant candidates were exposed to light for four hours at 250 W/m^2 and the resulting H2O2 formation was quantified by the Amplexassay. Specifically, antioxidants were prepared to 1 mM in 20 mM histidine acetate buffer at pH 5.5. The 1 mM antioxidant solutions were aliquoted into glass vials (2 mL/glass vial) and exposed to four hours of light at 250 W/m^2 in an Atlas SunTest CPS+ Xenon Test Instrument (Chicago, Ill.). Total UV dose was 90 watt-hours/square meter and total visible dose was 0.22 million lux hours over the 4-hour period. Control vials were wrapped in aluminum foil and treated similarly. The amount of hydrogen peroxide generated after exposure to light was measured using the Amplex® Ultra Red Assay (Invitrogen, Carlsbad, Calif.) following the manufacturer's recommended procedure. On addition of horseradish peroxidase (HRP), the dye reacted 1:1 stoichiometrically with H2O2, resulting in the production of fluorescent oxidation product resorufin. In this study, fluorescence readings were obtained using a Spectra Max M2 Micro-plate Reader (Molecular Devices, Sunnyvale, Calif.) with excitation and emission set at 560 nm and 590 nm, respectively. Final H2O2 concentrations were determined using a standard curve ranging from 0 μm to 20 μm. […]

Q: For `N[C@@H](Cc1c[nH]c2ccccc12)C(=O)O` [L-Trp, L-Tryptophan], which “(H2O2 produced by Compound)/(H2O2 produced by L-Trp)” value (1 mM in 20 mM histidine acetate pH 5.5, four hours of light at 250 W/m^2) is on record?
A: 1

Q: And the “H2O2 production upon light exposure compared to L-Trp (in words)” value (1 mM, 20 mM L-His-acetate pH 5.5, 4 h light, 0.22 million lux hours)?
A: produced more H2O2
